Paper PMC8032624, “Prediction of dose-dependent in vivo acetylcholinesterase inhibition by profenofos in rats and humans using physiologically based kinetic (PBK) modeling-facilitated reverse dosimetry” (Archives of Toxicology, 2021)

Target: AChE (Homo sapiens, UniProt P22303)
Test: AChE inhibition by BCP
Assay type: biochemical

AChE, sequence (P22303 32-614): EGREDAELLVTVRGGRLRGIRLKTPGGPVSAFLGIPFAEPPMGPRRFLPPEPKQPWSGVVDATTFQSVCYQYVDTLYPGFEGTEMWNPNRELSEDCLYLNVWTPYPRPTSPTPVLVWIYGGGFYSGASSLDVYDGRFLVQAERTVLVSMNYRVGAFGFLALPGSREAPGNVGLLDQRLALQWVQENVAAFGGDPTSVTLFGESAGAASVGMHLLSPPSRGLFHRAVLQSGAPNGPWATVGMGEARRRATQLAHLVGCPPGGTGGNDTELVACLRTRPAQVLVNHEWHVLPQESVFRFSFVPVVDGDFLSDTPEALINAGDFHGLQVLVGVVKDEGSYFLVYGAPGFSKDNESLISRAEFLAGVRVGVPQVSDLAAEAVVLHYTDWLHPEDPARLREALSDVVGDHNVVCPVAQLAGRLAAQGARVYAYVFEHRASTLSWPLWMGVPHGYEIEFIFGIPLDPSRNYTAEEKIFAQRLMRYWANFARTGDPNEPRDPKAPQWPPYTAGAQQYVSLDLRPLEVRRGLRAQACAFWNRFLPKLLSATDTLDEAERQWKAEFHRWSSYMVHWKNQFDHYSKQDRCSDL

Oc1ccc(Br)cc1Cl [BCP, 4-bromo-2-chlorophenol]
AChE inhibition: not inhibit AChE
